The source made the active and inactive calls.
What was measured:
[1] = biological target: T1, Replicative DNA helicase DnaB (Mycobacterium tuberculosis, UniProt P9WMR3); assay: DnaB intein splicing inhibitors, dose response, biochemical, cell-free fluorescence (AID 449749); type: functional
T1 sequence (P9WMR3 whole entry): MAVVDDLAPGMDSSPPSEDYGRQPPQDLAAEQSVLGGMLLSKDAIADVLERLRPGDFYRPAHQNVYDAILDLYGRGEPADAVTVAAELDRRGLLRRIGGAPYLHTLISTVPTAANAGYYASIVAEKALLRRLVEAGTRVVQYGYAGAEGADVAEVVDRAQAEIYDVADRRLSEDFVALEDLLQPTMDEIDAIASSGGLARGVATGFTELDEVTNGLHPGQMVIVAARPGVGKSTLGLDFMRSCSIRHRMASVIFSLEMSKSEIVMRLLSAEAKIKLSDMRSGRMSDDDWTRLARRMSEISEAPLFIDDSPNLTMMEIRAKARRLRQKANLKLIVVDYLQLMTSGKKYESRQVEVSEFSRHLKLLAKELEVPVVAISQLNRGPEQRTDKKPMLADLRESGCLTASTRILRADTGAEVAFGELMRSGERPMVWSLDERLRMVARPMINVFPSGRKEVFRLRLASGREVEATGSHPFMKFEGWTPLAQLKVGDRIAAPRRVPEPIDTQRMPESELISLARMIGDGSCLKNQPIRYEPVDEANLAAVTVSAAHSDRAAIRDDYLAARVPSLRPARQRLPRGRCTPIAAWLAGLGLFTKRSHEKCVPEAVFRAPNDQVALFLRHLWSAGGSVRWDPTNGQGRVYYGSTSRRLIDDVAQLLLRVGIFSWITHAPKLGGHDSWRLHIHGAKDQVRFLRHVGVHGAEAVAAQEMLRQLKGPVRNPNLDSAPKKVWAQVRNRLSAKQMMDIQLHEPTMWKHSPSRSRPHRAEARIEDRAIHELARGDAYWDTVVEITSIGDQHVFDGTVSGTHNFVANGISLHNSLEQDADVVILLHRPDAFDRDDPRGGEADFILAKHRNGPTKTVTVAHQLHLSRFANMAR

[2] = biological target: T2, Protein RecA (Mycobacterium tuberculosis, UniProt P9WHJ3); assay: Fluorescence Cell-Free Homogeneous Dose Retest to Identify Inhibitors of RecA-Intein Splicing Activity. [Related pubchem assays (depositor defined):AID2097, AID2223, AID489010, AID492950]; type: functional
T2 sequence (P9WHJ3 whole entry): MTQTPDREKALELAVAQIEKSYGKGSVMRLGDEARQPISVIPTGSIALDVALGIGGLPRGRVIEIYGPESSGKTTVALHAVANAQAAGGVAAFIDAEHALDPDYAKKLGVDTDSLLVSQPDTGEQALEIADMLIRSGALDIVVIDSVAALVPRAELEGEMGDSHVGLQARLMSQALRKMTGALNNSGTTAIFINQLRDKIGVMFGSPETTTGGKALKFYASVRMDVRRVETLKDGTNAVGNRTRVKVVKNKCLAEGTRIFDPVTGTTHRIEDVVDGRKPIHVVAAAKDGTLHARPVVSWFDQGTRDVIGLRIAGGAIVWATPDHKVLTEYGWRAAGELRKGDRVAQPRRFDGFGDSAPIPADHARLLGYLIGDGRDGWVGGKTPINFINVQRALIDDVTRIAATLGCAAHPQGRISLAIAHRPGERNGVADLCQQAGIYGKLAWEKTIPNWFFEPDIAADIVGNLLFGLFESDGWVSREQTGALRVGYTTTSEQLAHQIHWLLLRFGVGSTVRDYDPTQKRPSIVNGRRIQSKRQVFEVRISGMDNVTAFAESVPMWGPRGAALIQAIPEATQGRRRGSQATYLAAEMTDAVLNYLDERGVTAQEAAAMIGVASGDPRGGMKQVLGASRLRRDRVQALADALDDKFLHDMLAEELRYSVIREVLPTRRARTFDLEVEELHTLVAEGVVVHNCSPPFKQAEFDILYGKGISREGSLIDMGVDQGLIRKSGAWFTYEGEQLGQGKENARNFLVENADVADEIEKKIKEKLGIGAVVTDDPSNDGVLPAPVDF

[3] = test system: BJ; assay: cytotoxicity toward BJ-TERT fibroblasts, dose response, cell-based, RAS-independent, luminescence (AID 1933); type: functional; settings: Homo sapiens
[4] = cytotoxicity toward DRD oncogenic fibroblasts, dose response, cell-based, non-viral oncogenic, luminescence (AID 1934); type: functional; settings: Homo sapiens
[5] = test system: BJ; assay: cytotoxicity toward BJ-TERT-LT-ST fibroblasts, dose response, cell-based, RAS-independent, luminescence (AID 1935); type: functional; settings: Homo sapiens;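 also: BJ fibroblasts immortalized with TERT plus LT and ST oncogenes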
[6] = test system: BJ; assay: cells; type: functional, cell-based; settings: Homo sapiens
[7] = test system: H9c2; assay: cells; type: functional, cell-based; settings: Rattus norvegicus, H9c2, Myocardium;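 also: confirmatory concentration-response retest of ultra-high-throughput screening hits for modulation of myocardial damage; cell death induced by hydrogen peroxide oxidative stress; compound pretreatment for 60 min then peroxide exposure for 2 h; potency is for protecting the cells against peroxide damage rather than for killing them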
[8] = biological target: T3, Fatty acid synthase (Homo sapiens, UniProt P49327); assay: FAS thioesterase domain inhibitors, dose response, biochemical, endpoint fluorescence intensity, uHTS hits (AID 624327); type: functional;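 also: fluorescence from hydrolysis of an O-methyl fluorescein acyl ester substrate by the enzyme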
T3 sequence (P49327 whole entry, the tested form may be a part): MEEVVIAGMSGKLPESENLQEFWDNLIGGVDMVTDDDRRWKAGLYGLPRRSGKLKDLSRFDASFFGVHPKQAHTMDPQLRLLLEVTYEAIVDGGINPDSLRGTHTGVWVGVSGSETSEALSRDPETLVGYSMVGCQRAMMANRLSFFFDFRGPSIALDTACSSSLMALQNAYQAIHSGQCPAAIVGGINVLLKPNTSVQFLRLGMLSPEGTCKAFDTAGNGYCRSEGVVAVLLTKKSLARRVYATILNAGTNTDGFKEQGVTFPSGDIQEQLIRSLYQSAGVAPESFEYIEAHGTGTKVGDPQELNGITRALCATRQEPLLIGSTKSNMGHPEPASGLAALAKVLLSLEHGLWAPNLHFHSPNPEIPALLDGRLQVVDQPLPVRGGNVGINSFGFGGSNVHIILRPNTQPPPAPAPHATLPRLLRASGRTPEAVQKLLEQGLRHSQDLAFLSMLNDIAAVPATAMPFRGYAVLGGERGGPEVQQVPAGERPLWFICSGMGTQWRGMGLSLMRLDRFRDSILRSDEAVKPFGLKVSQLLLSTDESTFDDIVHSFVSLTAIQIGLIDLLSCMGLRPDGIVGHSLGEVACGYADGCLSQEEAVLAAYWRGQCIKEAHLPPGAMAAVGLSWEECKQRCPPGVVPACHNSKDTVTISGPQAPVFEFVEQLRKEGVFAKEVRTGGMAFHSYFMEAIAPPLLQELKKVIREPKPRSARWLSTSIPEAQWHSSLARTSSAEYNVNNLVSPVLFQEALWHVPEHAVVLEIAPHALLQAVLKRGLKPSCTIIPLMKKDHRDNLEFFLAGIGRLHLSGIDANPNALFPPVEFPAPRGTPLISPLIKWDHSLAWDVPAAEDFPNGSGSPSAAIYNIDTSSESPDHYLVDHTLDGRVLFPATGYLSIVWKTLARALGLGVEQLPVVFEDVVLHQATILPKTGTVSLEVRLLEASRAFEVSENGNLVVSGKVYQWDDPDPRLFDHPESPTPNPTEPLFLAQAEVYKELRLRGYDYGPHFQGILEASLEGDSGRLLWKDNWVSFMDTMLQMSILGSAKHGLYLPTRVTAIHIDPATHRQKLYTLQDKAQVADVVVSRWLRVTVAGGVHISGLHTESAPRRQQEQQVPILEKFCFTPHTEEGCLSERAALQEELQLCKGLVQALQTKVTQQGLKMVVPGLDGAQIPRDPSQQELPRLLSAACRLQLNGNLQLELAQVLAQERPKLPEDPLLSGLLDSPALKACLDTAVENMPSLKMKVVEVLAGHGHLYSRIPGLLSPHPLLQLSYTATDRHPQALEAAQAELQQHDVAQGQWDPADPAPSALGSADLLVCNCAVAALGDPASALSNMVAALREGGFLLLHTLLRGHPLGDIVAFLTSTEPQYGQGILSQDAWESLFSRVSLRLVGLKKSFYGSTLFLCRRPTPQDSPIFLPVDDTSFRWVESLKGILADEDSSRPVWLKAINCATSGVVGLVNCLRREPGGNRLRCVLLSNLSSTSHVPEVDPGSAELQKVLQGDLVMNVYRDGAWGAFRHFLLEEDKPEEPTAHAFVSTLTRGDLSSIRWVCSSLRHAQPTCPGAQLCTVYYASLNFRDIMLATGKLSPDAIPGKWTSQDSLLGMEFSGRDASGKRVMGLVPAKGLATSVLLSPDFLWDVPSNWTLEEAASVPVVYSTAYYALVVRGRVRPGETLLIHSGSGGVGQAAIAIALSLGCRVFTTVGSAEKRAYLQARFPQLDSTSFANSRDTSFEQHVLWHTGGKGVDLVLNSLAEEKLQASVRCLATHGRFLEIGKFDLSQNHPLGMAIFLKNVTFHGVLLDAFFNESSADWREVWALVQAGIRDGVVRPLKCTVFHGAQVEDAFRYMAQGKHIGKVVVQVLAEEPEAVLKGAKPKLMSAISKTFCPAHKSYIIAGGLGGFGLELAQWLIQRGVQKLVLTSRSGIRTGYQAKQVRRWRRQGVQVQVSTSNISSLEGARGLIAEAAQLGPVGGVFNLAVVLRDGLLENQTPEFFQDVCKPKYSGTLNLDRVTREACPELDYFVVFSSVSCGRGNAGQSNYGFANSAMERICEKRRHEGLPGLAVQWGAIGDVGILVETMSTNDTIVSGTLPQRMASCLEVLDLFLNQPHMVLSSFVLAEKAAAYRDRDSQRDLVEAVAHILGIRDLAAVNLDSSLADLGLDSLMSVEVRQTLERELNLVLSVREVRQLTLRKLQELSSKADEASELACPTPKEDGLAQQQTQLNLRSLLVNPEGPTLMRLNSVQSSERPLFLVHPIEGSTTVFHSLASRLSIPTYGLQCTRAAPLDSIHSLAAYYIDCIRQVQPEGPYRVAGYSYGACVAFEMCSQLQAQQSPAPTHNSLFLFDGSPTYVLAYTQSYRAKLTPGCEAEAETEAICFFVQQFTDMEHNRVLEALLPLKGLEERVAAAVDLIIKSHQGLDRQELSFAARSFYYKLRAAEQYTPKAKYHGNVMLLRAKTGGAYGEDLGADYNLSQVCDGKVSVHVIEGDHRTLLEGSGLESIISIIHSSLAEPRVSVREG

[9] = biological target: T3, Fatty acid synthase; assay: FAS thioesterase domain inhibitors, dose response, biochemical, kinetic fluorescence intensity (AID 624326); type: functional;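 also: rate of fluorescence rise from hydrolysis of a fluorogenic O-methyl fluorescein ester substrate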
[10] = cytotoxicity in HEK-293T cells, dose response, cytotoxicity control for TCR NF-kB inhibitor project, luminescence, T-cell screen hits (AID 489026); type: functional, cell-based;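 also: cells exposed to compound about 14 hours before the viability readout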
[11] = test system: Vero; assay: cells; type: functional; settings: Chlorocebus sabaeus
[12] = biological target: FAD-linked sulfhydryl oxidase ALR (Homo sapiens, UniProt P55789); assay: inhibitors of human ALR sulfhydryl oxidase, dose response, biochemical, H2O2 detection, luminescence, cherry-pick (AID 493248)
Chain of FAD-linked sulfhydryl oxidase ALR (P55789 whole entry, the tested form may be a part): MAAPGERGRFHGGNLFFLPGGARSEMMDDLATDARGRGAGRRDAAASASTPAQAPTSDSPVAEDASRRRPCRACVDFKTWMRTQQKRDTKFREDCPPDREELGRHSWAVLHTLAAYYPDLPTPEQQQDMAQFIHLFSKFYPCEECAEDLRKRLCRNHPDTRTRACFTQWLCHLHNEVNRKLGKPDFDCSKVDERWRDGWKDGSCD

[13] = inhibitors of HIV Env-driven cell fusion, dose response, cherry-pick (AID 652057); type: functional, cell-based
[14] = ZM109 Env clade C HIV-1 fusion inhibitors, dose response, HeLa effector, CEM target cells, luciferase, cherry-pick (AID 652058); type: functional, cell-based
[15] = biological target: Large T antigen (Simian virus 40, UniProt P03070); type: functional, Betapolyomavirus macacae;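 also: Confirmatory-stage PubChem screen for compounds that inhibit SV40 T antigen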
Chain of Large T antigen (P03070 whole entry): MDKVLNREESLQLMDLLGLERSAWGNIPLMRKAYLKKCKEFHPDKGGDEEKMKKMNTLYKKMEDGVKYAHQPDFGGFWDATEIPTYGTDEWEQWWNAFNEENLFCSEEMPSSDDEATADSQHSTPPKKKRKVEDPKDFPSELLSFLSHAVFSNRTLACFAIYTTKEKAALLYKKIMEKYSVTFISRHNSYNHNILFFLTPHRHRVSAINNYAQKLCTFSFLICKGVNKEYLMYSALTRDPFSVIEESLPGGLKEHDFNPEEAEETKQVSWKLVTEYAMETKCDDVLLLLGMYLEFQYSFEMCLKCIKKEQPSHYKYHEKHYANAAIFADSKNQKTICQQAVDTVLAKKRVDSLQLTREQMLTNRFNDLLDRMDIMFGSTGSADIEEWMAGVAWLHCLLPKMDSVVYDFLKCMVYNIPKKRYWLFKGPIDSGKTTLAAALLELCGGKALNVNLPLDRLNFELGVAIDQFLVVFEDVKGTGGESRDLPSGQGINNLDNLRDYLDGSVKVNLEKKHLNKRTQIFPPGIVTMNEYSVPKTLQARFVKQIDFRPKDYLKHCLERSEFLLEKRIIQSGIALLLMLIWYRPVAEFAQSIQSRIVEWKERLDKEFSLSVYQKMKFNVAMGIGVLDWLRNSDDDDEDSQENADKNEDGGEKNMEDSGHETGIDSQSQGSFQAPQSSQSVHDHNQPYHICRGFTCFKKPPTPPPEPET

[16] = biological target: T4, Zinc finger protein mex-5 (Caenorhabditis elegans, UniProt Q9XUB2); assay: MEX-5/TCR-2 RNA interaction inhibitors, dose response, biochemical, C. elegans, fluorescence polarization (AID 1960)
T4 sequence (Q9XUB2 whole entry): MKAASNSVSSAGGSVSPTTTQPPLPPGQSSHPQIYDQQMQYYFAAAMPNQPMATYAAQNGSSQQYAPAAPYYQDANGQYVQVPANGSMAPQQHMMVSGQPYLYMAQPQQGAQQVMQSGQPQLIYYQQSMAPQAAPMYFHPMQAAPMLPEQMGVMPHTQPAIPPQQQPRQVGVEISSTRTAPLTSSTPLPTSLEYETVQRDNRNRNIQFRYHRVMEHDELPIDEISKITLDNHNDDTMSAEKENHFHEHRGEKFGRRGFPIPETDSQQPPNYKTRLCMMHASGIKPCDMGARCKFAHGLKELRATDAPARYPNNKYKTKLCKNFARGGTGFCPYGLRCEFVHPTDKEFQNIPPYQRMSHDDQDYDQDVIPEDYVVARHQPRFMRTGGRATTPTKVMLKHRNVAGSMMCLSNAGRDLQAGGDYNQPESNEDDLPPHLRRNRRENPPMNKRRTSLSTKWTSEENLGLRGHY

[17] = biological target: T5, RNA-binding protein pos-1 (Caenorhabditis elegans, UniProt G5EF15); assay: inhibitors of POS-1/mex-3 RNA binding, dose response, biochemical, fluorescence polarization (AID 1964);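 also: purified POS-1 fused to maltose binding protein made in E. coli; potency of compounds blocking POS-1 binding to fluorescent RNA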
T5 sequence (G5EF15 whole entry): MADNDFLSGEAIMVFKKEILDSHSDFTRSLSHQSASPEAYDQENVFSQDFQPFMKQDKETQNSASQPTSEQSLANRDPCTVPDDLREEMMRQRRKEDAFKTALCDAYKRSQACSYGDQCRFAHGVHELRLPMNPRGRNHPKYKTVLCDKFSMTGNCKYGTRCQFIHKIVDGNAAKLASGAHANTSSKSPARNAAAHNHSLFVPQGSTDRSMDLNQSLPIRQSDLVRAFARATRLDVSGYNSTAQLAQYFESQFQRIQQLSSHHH

## CCOc1cc(C2C(C#N)=C(N)Oc3[nH]nc(CC)c32)ccc1OCCN1CCOCC1 (stereo unspecified)
[1]
  AC50: 27.2 µM (active)
[2]
  EC50: 7.2 µM (active)

## O=C1c2cc([N+](=O)[O-])ccc2-c2ncccc21
[3]
  EC50: 24.4 µM (active)
[4]
  EC50: > 150 µM (not active)
[1]
  AC50: 36.7 µM (active)
[5]
  EC50: > 150 µM (not active)
[2]
  EC50: 11.1 µM (active)
[6]
  EC50: > 150 µM (not active)

## O=C(CN(c1ccc2c(c1)OCCO2)S(=O)(=O)c1ccccc1)Nc1ccc2c(c1)OCO2
[7]
  IC50: > 79 µM (inactive)

## Cn1c(=O)c2c(nc(NCc3ccc4c(c3)OCO4)n2C)n(C)c1=O
[7]
  IC50: 36.1 µM (inactive)

## Cc1ccc(S(=O)(=O)Nc2cccc(-c3ccc4nncn4n3)c2)cc1
[8]
  IC50: 15.7 µM (active)
[9]
  IC50: 21.3 µM (inactive)
[10]
  IC50: > 80 µM (inactive)

## O=C1C=C(c2ccc3ncccc3c2)C[C@@H](c2ccc3c(c2)OCO3)C1
[10]
  IC50: > 80 µM (inactive)

## CC1CCCN(CCCNC(=O)c2ccc3c(c2)N(Cc2cccc(Cl)c2)C(=O)c2ccccc2[S+]3[O-])C1 (stereo unspecified)
[11]
  CC50: > 25 µM (active)

## O=C(COC(=O)Cc1nnc(O)c2ccccc12)Nc1c(Br)cc([N+](=O)[O-])cc1Br
[7]
  IC50: > 79 µM (inactive)

## CCN1C(=O)[C@H]2[C@H]3CN=C(SCc4ccc(C#N)cc4)N3[C@@](Cc3ccccc3)(C(=O)OC)[C@H]2C1=O
[7]
  IC50: > 79 µM (inactive)

## CCOC(=O)c1cc(-c2ccc(/C=N\n3cnnc3)o2)ccc1Cl
[7]
  IC50: > 79 µM (inactive)

## Cc1cc(-c2nnc(S)n2/N=C/c2ccc(Cl)c([N+](=O)[O-])c2)[nH]n1
[12]
  AC50: 3.45 µM (active)

## C[C@@H]1CN([C@H](C)CO)C(=O)c2cc(C#Cc3ccncc3)cnc2O[C@@H]1CN(C)S(=O)(=O)c1ccccc1F
[13]
  AC50: 30 µM (active)
[14]
  AC50: 25.1 µM (active)

## CC(=O)O[C@H]1C(=O)[C@]2(C)[C@H]([C@H](OC(=O)c3ccccc3)[C@]3(O)C[C@H](OC(=O)[C@H](O)[C@@H](NC(=O)c4ccccc4)c4ccccc4)C(C)=C1C3(C)C)[C@]1(OC(C)=O)CO[C@@H]1C[C@@H]2O
[10]
  IC50: > 80 µM (inactive)

## COc1cc(/C=N/Nc2nc(O)nnc2C)ccc1O
[12]
  AC50: 4.13 µM (active)
[15]
  IC50: 6.41 µM (active)
[16]
  EC50: 31.1 µM (active)
[17]
  EC50: 56.8 µM (active)

— ChEMBL document CHEMBL1201862, “PubChem BioAssay data set” (2004)
